Results on 13 compounds are retold here after ChEMBL document CHEMBL1240454, “1,3-Dioxolane-based ligands incorporating a lactam or imide moiety: structure-affinity/activity relationship at alpha1-adrenoceptor subtypes and at 5-HT1A receptors” (Eur J Med Chem, 2010).

Experiment [1] addresses T1, Alpha-1B adrenergic receptor (Rattus norvegicus) (UniProt P15823).
T1 sequence (whole entry): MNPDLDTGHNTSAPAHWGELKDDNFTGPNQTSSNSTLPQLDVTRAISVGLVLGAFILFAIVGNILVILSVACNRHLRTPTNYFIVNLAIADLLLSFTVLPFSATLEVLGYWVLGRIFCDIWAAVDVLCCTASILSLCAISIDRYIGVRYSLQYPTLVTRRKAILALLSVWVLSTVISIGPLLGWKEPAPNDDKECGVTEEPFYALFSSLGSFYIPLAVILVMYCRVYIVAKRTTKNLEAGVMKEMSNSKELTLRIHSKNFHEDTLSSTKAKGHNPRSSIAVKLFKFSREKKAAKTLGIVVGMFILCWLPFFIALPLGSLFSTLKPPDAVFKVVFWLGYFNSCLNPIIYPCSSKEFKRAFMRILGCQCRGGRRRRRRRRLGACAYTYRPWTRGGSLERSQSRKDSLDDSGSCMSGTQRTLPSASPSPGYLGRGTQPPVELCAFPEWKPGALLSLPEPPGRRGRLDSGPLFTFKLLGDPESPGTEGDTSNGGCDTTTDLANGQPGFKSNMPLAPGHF
Nature of the experiment: Antagonist activity at adrenergic Alpha-1B receptor in Wistar rat spleen assessed as inhibition of […]-induced tissue contraction treated 30 mins before […] challenge. It is filed as functional, tissue-based.

Experiment [2] is filed under the species Rattus norvegicus. As to the kind of experiment: Selectivity for adrenergic Alpha-1B receptor in Wistar rat spleen over adrenergic alpha1A receptor in Wistar rat prostatic vas deferens. It is filed as tissue-based.
For experiment [3], the species on record is Rattus norvegicus. As to the kind of experiment: Selectivity for adrenergic alpha1A receptor in Wistar rat prostatic vas deferens over adrenergic Alpha-1D receptor in Wistar rat thoracic aorta. It counts as tissue-based.
The target in experiment [4] is T2, 5-hydroxytryptamine receptor 1A (Homo sapiens) (UniProt P08908).
T2 sequence (whole entry): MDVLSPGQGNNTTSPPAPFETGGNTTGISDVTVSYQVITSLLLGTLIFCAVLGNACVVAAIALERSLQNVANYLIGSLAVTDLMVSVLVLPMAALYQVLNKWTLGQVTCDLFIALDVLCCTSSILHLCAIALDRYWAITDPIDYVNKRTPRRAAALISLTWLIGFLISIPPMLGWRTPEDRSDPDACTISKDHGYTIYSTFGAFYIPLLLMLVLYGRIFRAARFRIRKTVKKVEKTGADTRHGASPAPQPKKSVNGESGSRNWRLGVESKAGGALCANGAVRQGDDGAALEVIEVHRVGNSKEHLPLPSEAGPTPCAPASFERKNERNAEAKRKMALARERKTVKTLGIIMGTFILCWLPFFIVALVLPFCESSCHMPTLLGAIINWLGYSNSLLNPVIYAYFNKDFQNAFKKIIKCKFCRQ
Nature of the experiment: Agonist activity at human cloned 5HT1A receptor expressed in human HeLa cells assessed as stimulation of [35S]GTPgammaS binding after 20 mins by liquid scintillation counting. It is filed as functional, cell-based.

Experiment [5] deals with T2, 5-hydroxytryptamine receptor 1A (Homo sapiens). Nature of the experiment: Agonist activity at human cloned 5HT1A receptor expressed in human HeLa cells assessed as stimulation of [35S]GTPgammaS binding after 20 mins by liquid scintillation counting relative to maximal 5HT response. It is filed as functional, cell-based.
Experiment [6] concerns the target T3, 5-hydroxytryptamine receptor 1A (Homo sapiens, UniProt P08908).
T3 sequence (P08908 whole entry): T2 sequence (whole entry)
As to the kind of experiment: Binding affinity to 5HT1A receptor.

Experiment [7] in a line: Selectivity for adrenergic alpha1 receptor over 5HT1A receptor.
Experiment [8] deals with T4, Alpha-1A adrenergic receptor (Homo sapiens, UniProt P35348).
T4 sequence (P35348 whole entry): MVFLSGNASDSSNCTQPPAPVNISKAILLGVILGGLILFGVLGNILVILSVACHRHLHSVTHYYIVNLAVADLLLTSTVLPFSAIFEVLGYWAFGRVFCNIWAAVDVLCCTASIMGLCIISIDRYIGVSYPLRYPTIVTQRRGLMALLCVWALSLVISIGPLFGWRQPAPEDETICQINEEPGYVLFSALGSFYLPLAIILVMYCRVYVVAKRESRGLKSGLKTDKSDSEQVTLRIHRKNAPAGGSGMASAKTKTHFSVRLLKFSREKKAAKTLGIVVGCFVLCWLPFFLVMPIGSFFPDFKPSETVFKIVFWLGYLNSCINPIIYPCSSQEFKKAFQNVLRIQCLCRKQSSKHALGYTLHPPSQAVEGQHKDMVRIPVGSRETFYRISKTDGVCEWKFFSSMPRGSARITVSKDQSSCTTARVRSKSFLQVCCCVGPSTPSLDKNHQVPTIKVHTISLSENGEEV
Description: Displacement [3H]prazosin of human recombinant alpha1A adrenergic receptor expressed in CHO cells by rapid filtration technique

The target in experiment [9] is T2, 5-hydroxytryptamine receptor 1A (Homo sapiens). The note with it: HeLa.

Take `COc1ccccc1N1CCN(CC2OCC(c3ccccc3)(c3ccccc3)O2)CC1` (configuration not stated): the pKb in experiment [1] is 6.69. The figures for the Selectivity ratio (in the experiment listed under Rattus norvegicus [2]; in the experiment listed under Rattus norvegicus [3]; in experiment [7]) were 36, 0.8 and 100, respectively. Besides, in experiment [4], the pD2 was 8.3. For the same compound, the Emax in experiment [5] came to 16%. Further, the values for the Ki in experiment [6] and in [8] were 15.1 nM and 0.263 nM, respectively.

With `COc1ccccc1N1CCN(C[C@H]2CO[C@@](CN3CCCCC3=O)(c3ccccc3)O2)CC1`, the pKb in experiment [1] was 7.93; in experiment [9], 7.38. Also, the Selectivity ratio in the experiment listed under Rattus norvegicus [2] and in the experiment filed under Rattus norvegicus [3] was 0.3 in each case. In [8], this compound had a Ki of 0.871 nM.

As for `COc1ccccc1N1CCN(C[C@@H]2CO[C@@](CN3C(=O)CC4(CCCC4)CC3=O)(c3ccccc3)O2)CC1` (relative stereo), in [1], the negative-log Kb (pKb) is 7.47. Moreover, the Selectivity ratio in the experiment filed under Rattus norvegicus [2] was 0.7; in the experiment filed under Rattus norvegicus [3], 17. Further, in experiment [4], the pD2 amounted to 7.98. Further, the Emax in experiment [5] turned out to be 60%. The same compound showed a Ki in [8] of 10 nM.

With `COc1ccccc1N1CCN(C[C@H]2CO[C@](CN3CCCC3=O)(c3ccccc3)O2)CC1` (relative stereo), the results for the pKb in experiment [1] and in [9] were 8.29 and 7.16, respectively. For the same compound, the figures for the Selectivity ratio in the experiment filed under Rattus norvegicus [2] and in the experiment listed under Rattus norvegicus [3] were 0.5 and 0.07, respectively. Also, the Ki in experiment [8] is 1.38 nM.

Consider `COc1ccccc1N1CCN(C[C@@H]2CO[C@](CN3CCCC3=O)(c3ccccc3)O2)CC1` (relative stereo), for which the pKb in experiment [1] was found to be 8.17. The Selectivity ratio came to 0.2 in the experiment filed under Rattus norvegicus [2] and 1 in the experiment listed under Rattus norvegicus [3]. For the same compound, the pD2 in experiment [4] was found to be 7.14. In [5], the Emax is 34%. Besides, in [8], the Ki was 12.6 nM.

As for `COc1ccccc1N1CCN(C[C@@H]2CO[C@@](CN3CCCCC3=O)(c3ccccc3)O2)CC1` (relative stereo), the pKb was 8.3 in experiment [1] and 7.39 in experiment [9]. In addition, the Selectivity ratio in the experiment filed under Rattus norvegicus [2] was determined as 0.1; in the experiment filed under Rattus norvegicus [3], 1. This compound also showed a Ki in experiment [8] of 11.5 nM.

Consider `COc1ccccc1N1CCN(C[C@H]2CO[C@@](CN3CCCCCC3=O)(c3ccccc3)O2)CC1` (relative stereo), for which the negative logarithm of the Kb (pKb) in experiment [1] was found to be 8.42; in experiment [9] it was 7.25. Also, the values for the Selectivity ratio in the experiment filed under Rattus norvegicus [2] and in the experiment listed under Rattus norvegicus [3] were 4 and 0.04, respectively. Further, affinity in experiment [8] was put at a Ki of 0.631 nM.

Regarding `COc1ccccc1N1CCN(C[C@@H]2CO[C@@](CN3CCCCCC3=O)(c3ccccc3)O2)CC1` (relative stereo), the pKb in experiment [1] amounted to 8.08. In addition, the values for the Selectivity ratio in the experiment listed under Rattus norvegicus [2] and in the experiment filed under Rattus norvegicus [3] were 0.1 and 4, respectively. In addition, the pD2 in experiment [4] came out at 6.57. For the same compound, in experiment [5], the Emax was found to be 39%. This compound gave a Ki in experiment [8] of 26.9 nM.

Turning to `COc1ccccc1N1CCN(C[C@H]2CO[C@@](CN3C(=O)CCC3=O)(c3ccccc3)O2)CC1` (relative stereo), the pKb in [1] stood at 7.04. Further, the Selectivity ratio stood at 3 in the experiment listed under Rattus norvegicus [2] and 0.1 in the experiment listed under Rattus norvegicus [3]. Further, in [4], the pD2 was 7.05. Besides, the Emax in experiment [5] worked out at 45%. In addition, the inhibition constant Ki in [8] is 2.88 nM.

Consider `COc1ccccc1N1CCN(C[C@@H]2CO[C@@](CN3C(=O)CCC3=O)(c3ccccc3)O2)CC1` (relative stereo), for which the pKb in experiment [1] is 7.11. In addition, the Selectivity ratio in the experiment filed under Rattus norvegicus [2] amounted to 2; in the experiment listed under Rattus norvegicus [3], 3. In experiment [8], this compound had a Ki of 40.7 nM.

Take `COc1ccccc1N1CCN(C[C@H]2CO[C@@](CN3C(=O)CCCC3=O)(c3ccccc3)O2)CC1` (relative stereo): in experiment [1], the pKb was 7.12. Besides, the Selectivity ratio stood at 1 in the experiment listed under Rattus norvegicus [2] and 0.1 in the experiment filed under Rattus norvegicus [3]. Besides, in experiment [4], the pD2 came to 7.23. Besides, the maximal effect (Emax) in [5] is 34%. This compound also had a Ki in [8] of 6.61 nM.

With `COc1ccccc1N1CCN(C[C@@H]2CO[C@@](CN3C(=O)CCCC3=O)(c3ccccc3)O2)CC1` (relative stereo), the pKb in experiment [1] stood at 7.35. In addition, the Selectivity ratio in the experiment listed under Rattus norvegicus [2] was 1; in the experiment listed under Rattus norvegicus [3], 2. This compound gave a Ki in experiment [8] of 21.4 nM.

Consider `COc1ccccc1N1CCN(C[C@H]2CO[C@@](CN3C(=O)CC4(CCCC4)CC3=O)(c3ccccc3)O2)CC1` (relative stereo), for which the pKb in [1] came to 7.4. The Selectivity ratio in the experiment listed under Rattus norvegicus [2] worked out at 3; in the experiment listed under Rattus norvegicus [3], 0.1. In addition, the pD2 in experiment [4] worked out at 7.8. Moreover, the Emax in experiment [5] came out at 49%. Further, affinity in experiment [8] was put at a Ki of 2.04 nM.
